Data reported in the NIST ThermoML archive (doi:10.1016/j.jct.2009.12.001).

Experiment: osmotic coefficient (dimensionless); mn = molality of the nth substance listed, in mol/kg
Conditions: 323.15 K, Liquid, Vapor Pressure Osmometer

CCOS(=O)(=O)[O-].CC[n+]1ccccc1 [1-ethylpyridinium ethyl sulfate] + CC(C)O
Conditions | osmotic coefficient
m1 = 0.0578 | 0.948
m1 = 0.1042 | 0.871
m1 = 0.2018 | 0.772
m1 = 0.3112 | 0.695
m1 = 0.3991 | 0.664
m1 = 0.5034 | 0.607
m1 = 0.6891 | 0.564
m1 = 0.9837 | 0.533
m1 = 1.287 | 0.506
m1 = 1.684 | 0.49
m1 = 2.075 | 0.47
m1 = 2.514 | 0.449
m1 = 2.915 | 0.432
m1 = 3.338 | 0.417

CCOS(=O)(=O)[O-].CC[n+]1ccccc1 [1-ethylpyridinium ethyl sulfate] + CCC(C)O
Conditions | osmotic coefficient
m1 = 0.0597 | 0.82
m1 = 0.0791 | 0.784
m1 = 0.1061 | 0.759
m1 = 0.1993 | 0.665
m1 = 0.313 | 0.575
m1 = 0.4056 | 0.515
m1 = 0.5166 | 0.482
m1 = 0.7016 | 0.452
m1 = 1.006 | 0.429
m1 = 1.291 | 0.421
m1 = 1.73 | 0.406
m1 = 2.104 | 0.392
m1 = 2.512 | 0.383
m1 = 2.915 | 0.378
m1 = 3.294 | 0.374

CCOS(=O)(=O)[O-].CC[n+]1ccccc1 [1-ethylpyridinium ethyl sulfate] + CCCCCO
Conditions | osmotic coefficient
m1 = 0.0539 | 0.761
m1 = 0.0802 | 0.679
m1 = 0.1082 | 0.605
m1 = 0.2024 | 0.521
m1 = 0.3151 | 0.465
m1 = 0.4053 | 0.435
m1 = 0.511 | 0.416
m1 = 0.7996 | 0.376
m1 = 1.105 | 0.359
m1 = 1.414 | 0.355
m1 = 1.719 | 0.347
m1 = 2.23 | 0.335
m1 = 2.724 | 0.332
m1 = 3.206 | 0.33

CCOS(=O)(=O)[O-].CC[n+]1ccccc1 [1-ethylpyridinium ethyl sulfate] + CCCCO
Conditions | osmotic coefficient
m1 = 0.0564 | 0.758
m1 = 0.0836 | 0.694
m1 = 0.1146 | 0.652
m1 = 0.2084 | 0.578
m1 = 0.2995 | 0.536
m1 = 0.3996 | 0.508
m1 = 0.5015 | 0.495
m1 = 0.7046 | 0.467
m1 = 0.9934 | 0.44
m1 = 1.289 | 0.429
m1 = 1.688 | 0.418
m1 = 2.094 | 0.402
m1 = 2.493 | 0.388
m1 = 2.886 | 0.38
m1 = 3.301 | 0.374

CCOS(=O)(=O)[O-].CC[n+]1ccccc1 [1-ethylpyridinium ethyl sulfate] + CCCO
Conditions | osmotic coefficient
m1 = 0.0584 | 0.853
m1 = 0.073 | 0.824
m1 = 0.1074 | 0.768
m1 = 0.2108 | 0.684
m1 = 0.3057 | 0.635
m1 = 0.4128 | 0.603
m1 = 0.5105 | 0.586
m1 = 0.7918 | 0.561
m1 = 1.108 | 0.547
m1 = 1.347 | 0.54
m1 = 1.697 | 0.528
m1 = 2.217 | 0.505
m1 = 2.727 | 0.487
m1 = 3.22 | 0.474
